# Measured values reported in paper PMC8151276, “An Integrated Approach toward NanoBRET Tracers for Analysis of GPCR Ligand Engagement” (Molecules, 2021).
# Target: T1, ADRA2A (Homo sapiens, UniProt P08913)
# T1 construct: purchased Promega (in-house HiBiT-GPCR construct library, NanoBRET)
# T1 sequence (P08913 1-465): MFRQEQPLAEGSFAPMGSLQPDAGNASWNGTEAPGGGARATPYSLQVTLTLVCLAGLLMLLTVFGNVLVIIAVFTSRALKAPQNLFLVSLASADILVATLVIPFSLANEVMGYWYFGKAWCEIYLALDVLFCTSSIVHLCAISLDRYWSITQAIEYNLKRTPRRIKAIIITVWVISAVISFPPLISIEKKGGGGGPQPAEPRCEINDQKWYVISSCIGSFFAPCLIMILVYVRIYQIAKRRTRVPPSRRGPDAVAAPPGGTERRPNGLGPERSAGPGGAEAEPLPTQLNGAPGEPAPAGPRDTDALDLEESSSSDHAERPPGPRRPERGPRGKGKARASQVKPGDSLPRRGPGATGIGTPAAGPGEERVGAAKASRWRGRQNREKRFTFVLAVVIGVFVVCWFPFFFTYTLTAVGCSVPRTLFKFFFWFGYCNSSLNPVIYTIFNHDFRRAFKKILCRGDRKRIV
# Assay: NanoBRET screen HiBiT-ADRA2A in HEK293
# Assay type: binding
# Experimental: Each tracer candidate was screened across the entire library of HiBiT-GPCR constructs using NanoBRET as the detection modality. As depicted in Figure 4A, the specificity of interactions was evaluated through decrease in BRET due to competitive displacement of a bound tracer by excess parental compound. Each tracer was analyzed for binding to each HiBiT-GPCR fusion in the absence and in the presence of competing parental compound. Briefly, HEK293 cells were transfected with HiBiT-GPCR constructs diluted into promoterless DNA to reduce expression and maximize translocation to the cell surface. Each tracer candidate was then screened at concentrations of 1 μM and 0.1 μM across cells expressing these fusions. Cells were treated for 1.5 h with tracer either alone or in the presence of 20 μM competing parental compound (i.e., control). BRET was measured upon addition of purified LgBiT and subsequent complementation with HiBiT genetically fused to a GPCR. The specificity of interactions was assessed through a decrease in BRET signal due to competitive displacement of the bound tracer. To further gauge the robustness of these interactions, the fold response over the control (i.e., BRETtracer/BRETcontrol) was calculated. We chose a 1.5-fold response, which translates to ≥7-fold signal over noise as the minimal threshold required to score an interaction as positive.
# HiBiT-GPCR DNA constructs were diluted in 10 mM Tris pH 8 to a final concentration of 0.01 μg/μL, arrayed in 96-well plates and stored at −20 °C. For transfection, HEK293 cells were suspended in Opti-MEM (without phenol red) supplemented with 2% fetal bovine serum (Seradigm) and 100 units/mL penicillin–streptomycin (Gibco) at a final concentration of 220,000 cells/mL and dispensed into white 96-well plates at 90 μL/well. Subsequent transfections and screens were carried using an Agilent Bravo Automated Liquid Handling Platform. First, the 96-well HiBiT DNA arrays were diluted 25-fold in Opti-MEM (without serum or phenol red) to a final concentration of 0.0004 μg/μL and 20 μL of the diluted DNAs were transferred into new 96-well plates. Next, promoterless carrier DNA (1 μg/μL) was diluted 25-fold (0.04 μg/μL) and then dispensed into the diluted arrays at 20 μL/well. Following brief mixing, Viafect transfection reagent (Promega) diluted 16-fold into Opti-MEM was dispensed into the plates at 40 μL/well. After mixing by pipetting, plates were incubated for 10 min on the pipetting station deck. The DNA-transfection reagent complexes were then added to plates containing cells. To facilitate the screen, 10 μL of DNA-transfection reagent complexes were added in duplicates to the top 4 and bottom 4 rows, resulting in two identical 48-well arrays per plate. Plates with transfected cells were incubated for 18–20 h at 37 °C/5% CO2. A screen of each tracer across the entire library using two different concentrations requires duplicate plates of transfected cells. Depending on the number of tracers being screened, transfections can be scaled up using the same ratios. The next day, for each tracer, four 20× screening solutions in tracer dilution buffer (Promega) were prepared: two duplicates at final concentration of 20 μM and two duplicates at a final concentration of 2 μM. […] The four resulting solutions were diluted 4-fold in Opti-MEM without serum or phenol red to generate 5× solutions (5 µM and 0.5 µM tracer +/− 100 μM competing compound). To screen the library, a BioTek MultiFlo FX liquid dispenser was used to dispense 22.5 µL of tracer solution to the top 4 rows and 22.5 µL tracer + competing compound solution to the 4 bottom rows. Plates were briefly mixed on an orbital shaker and incubated for 1.5 h at room temperature. […] Plates were briefly mixed on an orbital shaker and incubated for 15 min to allow complementation.
Structure (SMILES),"NanoBRET Fold Response (ADRA2A, tracer 0.1μM)","NanoBRET Fold Response (ADRA2A, tracer 1μM)",other results
O=C(CCc1ccc2n1[B-](F)(F)[N+]1=C(c3ccc[nH]3)C=CC1=C2)NCc1ccc(C(=O)NCCOCCC(=O)N[C@@H]2CC[C@@]3(O)[C@H]4Cc5ccc(O)c6c5[C@@]3(CCN4CC3CC3)[C@H]2O6)cc1 [Naltrexone-3-NB590],1.12,0.92,–
CCCn1c(=O)c2[nH]c(-c3ccc(OCC(=O)NCCNC(=O)CCOCCNC(=O)c4ccc(CNC(=O)CCc5ccc6n5[B-](F)(F)[N+]5=C(c7ccc[nH]7)C=CC5=C6)cc4)cc3)nc2n(CCC)c1=O [XAC-3-NB590],0.97,1.11,–
CC(C)N(CC[C@H](c1ccccc1)c1cc(CCNC(=O)c2ccc(CNC(=O)CCc3ccc4n3[B-](F)(F)[N+]3=C(c5ccc[nH]5)C=CC3=C4)cc2)ccc1O)C(C)C [Tolterodine-BZ-NB590],1.08,1.07,–
N#CN/C(=N\CCNC(=O)c1ccc(N)cc1)NCCCOc1cccc(CN2CCCCC2)c1 [Aminopotentidine (unmodified)],–,–,"NanoBRET Fold Response (ADRA2A, other tracers/Aminopotentidine (unmodified), 0.1μM): 1.01; NanoBRET Fold Response (ADRA2A, other tracers/Aminopotentidine (unmodified), 1μM): 1.67"
COc1ccc2[nH]c(-c3ccc(CNC(=O)CCOCCOCCOCCOCCNC(=O)CCc4ccc5n4[B-](F)(F)[N+]4=C(c6ccc[nH]6)C=CC4=C5)cc3)c(CCNC(C)=O)c2n1 [AzomelatoninICO9-2-NB590],–,–,NanoBRET Fold Response (0.1μM tracer): 1.01; NanoBRET Fold Response (1μM tracer): 1.06
COc1ccccc1N1CCN(CCCCN2C(=O)c3ccc(CNC(=O)CCOCCNC(=O)c4ccc(CNC(=O)CCc5ccc6n5[B-](F)(F)[N+]5=C(c7ccc[nH]7)C=CC5=C6)cc4)cc3C2=O)CC1 [NAN-190-3-NB590],2.11,2.92,–
Cc1nc2n(c(=O)c1CCN1CCC(c3noc4cc(F)ccc34)CC1)CCCC2OC(=O)NCCOCCOCCOCCOCCNC(=O)CCc1ccc2n1[B-](F)(F)[N+]1=C(c3ccc[nH]3)C=CC1=C2 (stereo not drawn) [Risperidone-2-NB590],1.29,2.34,–
O=C(CCOCCOCCOCCOCCNC(=O)CCc1ccc2n1[B-](F)(F)[N+]1=C(c3ccc[nH]3)C=CC1=C2)NCCCN1CCN(C2=Nc3ccccc3Oc3ccc(Cl)cc32)CC1 [Loxapine-a-2-NB590],0.99,1.02,–
COc1ccccc1N1CCN(CCCCN2C(=O)c3ccc(CNC(=O)CCOCCOCCOCCOCCNC(=O)CCc4ccc5n4[B-](F)(F)[N+]4=C(c6ccc[nH]6)C=CC4=C5)cc3C2=O)CC1 [NAN-190-2-NB590],2.17,3.08,–
CC(C)N(CC[C@H](c1ccccc1)c1cc(CCNC(=O)CCOCCOCCOCCOCCNC(=O)CCc2ccc3n2[B-](F)(F)[N+]2=C(c4ccc[nH]4)C=CC2=C3)ccc1O)C(C)C [Tolterodine-2-NB590],1.00,1.02,–
N#CN=C(NCCCOc1cccc(CN2CCCCC2)c1)NCCNC(=O)CCOCCOCCOCCOCCNC(=O)CCc1ccc2n1[B-](F)(F)[N+]1=C(c3ccc[nH]3)C=CC1=C2 [Aminopotentidine-2-NB590],1.04,1.26,–
CCOC(=O)c1cc(C#N)c(N2CCC(C(=O)NS(=O)(=O)Cc3ccccc3/C=C/C(=O)NCCNC(=O)CCc3ccc4n3[B-](F)(F)[N+]3=C(c5ccc[nH]5)C=CC3=C4)CC2)nc1C [AZD1283-1-NB590],–,–,"NanoBRET Fold Response (ADRA2A, 0.1μM): 1.04; NanoBRET Fold Response (ADRA2A, 1μM): 1.13"
CN(C)CCC=C1c2ccccc2CCc2ccc(C(=O)NCCNC(=O)CCOCCOCCOCCOCCNC(=O)CCc3ccc4n3[B-](F)(F)[N+]3=C(c5ccc[nH]5)C=CC3=C4)cc21 [Amitriptyline-b-2-NB590],–,–,"NanoBRET Fold Response (tracer at 0.1μM, listed as amitriptyline-b-2-NB590): 1.11; NanoBRET Fold Response (tracer at 1μM, listed as amitriptyline-b-2-NB590): 1.00"
CN(C)CCC=C1c2ccccc2CCc2ccc(C(=O)NCCNC(=O)CCOCCOCCOCCOCCNC(=O)CCc3ccc4n3[B-](F)(F)[N+]3=C(c5ccc[nH]5)C=CC3=C4)cc21 [Amitriptyline-a-2-NB590],–,–,NanoBRET Fold Response (tracer at 0.1μM): 1.03; NanoBRET Fold Response (tracer at 1μM): 1.12
O=C(CCc1ccc2n1[B-](F)(F)[N+]1=C(c3ccc[nH]3)C=CC1=C2)NCCOCCOCCNC(=O)OCCOCCN1CCN(C2=Nc3ccccc3Sc3ccccc32)CC1 [Quetiapine-a-2-NB590],1.10,1.22,–
Cc1cc2c(s1)Nc1ccccc1N=C2N1CCN(CCCNC(=O)CCOCCOCCOCCOCCNC(=O)CCc2ccc3n2[B-](F)(F)[N+]2=C(c4ccc[nH]4)C=CC2=C3)CC1 [Olanzapine-a-2-NB590],1.00,1.04,–
COc1ccc2c(n1)c(CCNC(C)=O)cn2CCNC(=O)CCc1ccc2n1[B-](F)(F)[N+]1=C(c3ccc[nH]3)C=CC1=C2 [Azamelatonin-1-NB590],–,–,NanoBRET Fold Response (0.1μM tracer): 1.08; NanoBRET Fold Response (1μM tracer): 1.01
CN(CCC=C1c2ccccc2CCc2ccccc21)C(=O)CCOCCOCCOCCOCCNC(=O)CCc1ccc2n1[B-](F)(F)[N+]1=C(c3ccc[nH]3)C=CC1=C2 [Amitriptyline-e-2-NB590],–,–,NanoBRET Fold Response (tracer at 1μM): 1.09
O=C(CCc1ccc2n1[B-](F)(F)[N+]1=C(c3ccc[nH]3)C=CC1=C2)NCc1ccc(C(=O)NCCOCCOCCNCC(O)COc2cccc3ccccc23)cc1 (stereo not drawn) [Propranolol-3-NB590],–,–,"NanoBRET Fold Response (ADRA2A, 0.1μM): 1.04; NanoBRET Fold Response (ADRA2A, 1μM): 1.06"
O=C(CCOCCOCCOCCOCCNC(=O)CCc1ccc2n1[B-](F)(F)[N+]1=C(c3ccc[nH]3)C=CC1=C2)NCCCN1CCN(C2=Nc3cc(Cl)ccc3Nc3ccccc32)CC1 [Clozapine-a-2-NB590],–,–,"NanoBRET Fold Response (ADRA2A, 0.1μM tracer): 1.27; NanoBRET Fold Response (ADRA2A, 1μM tracer): 1.78"
